Measurements from US11470844B2, “Vespidae wasp repellent” (KINP CO., LTD, priority 2015, dated 2022).

Tests used:
[1] = test system: Vespidae worker, all species; assay: Grape juice attraction trap set outside; type: in vivo
Protocol: (§1) The inventors conducted the experiment at four places in Kagawa Prefecture Kinbuchi Forest Park. The experiment was conducted totally 4 times from Oct. 11 to Nov. 4, 2013, from Nov. 4 to Dec. 7, 2013, from Oct. 1 to Oct. 31, 2014, and from Oct. 31 to Dec. 9, 2014.
(§2) First, four 2 cm square holes were opened on the side of a 2 L capacity PET bottle, and 500 mL of grape juice was added thereto to prepare a control attraction trap to kill a Vespidae worker. As Test liquid example, 25 mL, 5 mL or 1 mL of 2-phenylethanol was added to the grape juice of the traps. […] Since all of the test sites were low mountainous and sloping areas and had many trees, each trap had to be suspended from the branch of live trees. As a result, the horizontal distances between a pair of control example trap and test liquid example trap could not be adjusted to the same, and the distance was from 1 m to 8.5 m. There were not only Vespidae worker but also male Vespidae among the killed Vespidae wasps in the attraction traps; however, the results of the control example and test liquid example were compared on the basis of the number of the killed Vespidae worker, since a Vespidae worker causes a stabbing accident and plays an important role in building a nest. In Table 8, “*” indicates the case where there is a significant difference at p<0.01 in the χ^2 test to which the correction of Yates is applied, and “**” indicates the case where there is a significant difference at p<0.001 in the same test. The result of the first experiment in 2013 is shown in Table 9, the result of the second experiment in 2013 is shown in Table 10, the result of the first experiment using 1% 2-phenylethanol in 2014 is shown in Table 11, the result of the second experiment in 2014 is shown in Table 12, the result of the first experiment using 0.1% 2-phenylethanol in 2014 is shown in Table 13, and the result of the second experiment in 2014 is shown in Table 14. In Tables 9 to 14, “*” indicates the case where there is a significant difference at p<0.05 in the t-test, “**” indicates the case where there is a significant difference at p<0.01 in the same test, and “***” indicates the case where there is a significant difference at p<0.001 in the same test.
(§3) In the first experiment and second experiment, the trap prepared by adding 25 mL of 2-phenylethanol to 500 mL of grape juice was used as the test liquid example of 5% 2-phenylethanol.
(§4) In the first experiment and second experiment, 10 traps prepared by adding 5 mL of 2-phenylethanol to 500 mL of grape juice and 10 traps prepared by adding 0.5 mL of 2-phenylethanol to 500 mL of grape juice were used respectively as the 2 kinds of test liquid examples of 1% 2-phenylethanol and 0.1% 2-phenylethanol to conduct the experiment.

Vespa ducalis = assay: Grape juice attraction trap set outside; type: in vivo
Protocol: as §1, §2, §3, §4

[2] = test system: Vespa simillima xanthoptera Cameron worker; assay: Black ball nest disturbance, Experiment 1; type: in vivo; details: previously attacked ball
Protocol: The experiment was also conducted with utilizing a nest of Vespa simillima xanthoptera Cameron in Kagawa Prefecture Kinbuchi Forest Park in Takamatsu City Kagawa Prefecture on Oct. 24, 2014. Since the nest was also built in the ground, the nest could not be found except for the entrance thereof.
As the above-described Example 2(1), the nest entrance was disturbed by vibrating the black ball in contact with the nest entrance for about 10 seconds. The total number of attacking worker could not be counted, since the number of the worker which attacked to the control black ball using distilled water was much larger than that of the control in the experiment for Vespa mandarinia and the worker moved very rapidly. Thus, the video image was stopped every 30 seconds from the end of the nest entrance disturbance and the number of the worker which alighted on the hemispherical surface of the black ball for attack was counted. During 120 seconds for the experiment, the workers continued to strongly attack to the black ball as the workers constantly flew to and alighted on the black ball for attack and the worker number was not decreased. Such an attack was continued even after the end of the experiment at which the tip of the rod was moved to a place 5 m or more away from the nest, and the attack was finally not observed after about 20 minutes passed from the experiment was finished. Then, 2-phenylethanol was sprayed on the black ball to which Vespa simillima xanthoptera attacked as the test liquid example and the nest entrance was disturbed using the black ball. Although the worker which tried to come close to the black ball was observed, even the closest worker changed the direction in the air 10 to 20 cm from the surface of the black ball and flew away, and no worker which flew to and alighted on the surface of the black ball was found.

[3] = test system: P. jokahamae jokahamae Radoszkowski worker; assay: Spray on worker collecting Zelkova sap; type: in vivo, Polistes jokahamae jokahamae Radoszkowski
Protocol: The experiment involving a worker group of Polistes jokahamae jokahamae Radoszkowski on the exterior wall of a nest found in the campus of Faculty of Agriculture, Kochi University, located on 200 Otsu, Monobe, Nankoku City, Kochi Prefecture, was conducted on Jul. 13, 2015, and the experiment involving a worker of P. jokahamae jokahamae Radoszkowski which collected sap bled from sucking mark by adult Cryptotympana facialis of Zelkova tree stem planted in a private house in Fuseishi-cho, Takamatsu City, Kagawa Prefecture was conducted on July 19 to 22, 2015. In addition, the experiment involving a worker group of P. chinensis antennalis Pe'rez on the exterior wall of a nest found on a branch of a cheesewood planted at a bank of Noda pond located at Fuseishi-cho, Takamatsu City, Kagawa Prefecture was conducted on Jul. 30, 2015.
The experiment was conducted in accordance with the above-described Example 1(1) involving a Vespa mandarinia worker, distilled water as a control example spray and benzyl alcohol as a test liquid example spray were sequentially sprayed on a test object group or a test object worker by using a sprayer, and the behavior from immediately after spraying up to 1 minute later was respectively recorded.

[4] = 0.1% 2-phenylethanol trap, first experiment 2014, 10 traps
[5] = 0.1% 2-phenylethanol trap, second experiment 2014, 10 traps
[6] = 1% 2-phenylethanol trap, first experiment 2014, 10 traps
[7] = 1% 2-phenylethanol trap, second experiment 2014, 10 traps
[8] = 5% 2-phenylethanol trap, first experiment 2013, 18 traps
[9] = 5% 2-phenylethanol trap, second experiment 2013, 18 traps

Structure (SMILES): OCCc1ccccc1 [2-Phenylethanol, 2-phenylethanol]
- Number of effective trap ([1]; 0.1% 2-phenylethanol in grape juice, 2014, 1st experiment, 10 installed traps): 10
- Number of effective trap ([1]; 0.1% 2-phenylethanol in grape juice, 2014, 2nd experiment, 10 installed traps): 1
- Total number of killed worker (Average ± SD), All species [1, 4]: (6.20 ± 6.27)
- Total number of killed worker, All species [1, 4]: 62
- Total number of killed worker (Average ± SD), All species [1, 5]: (0.30 ± 0.95)
- Total number of killed worker, All species [1, 5]: 3
- Number of effective trap ([1]; 1% 2-phenylethanol in grape juice, 2014, 1st experiment, 10 installed traps): 0
- Number of effective trap ([1]; 1% 2-phenylethanol in grape juice, 2014, 2nd experiment, 10 installed traps): 0
- Total number of killed worker (Average ± SD), All species [1, 6]: (0.00 ± 0.00)
- Total number of killed worker, All species [1, 6]: 0
- Total number of killed worker (Average ± SD), All species [1, 7]: (0.00 ± 0.00)
- Total number of killed worker, All species [1, 7]: 0
- Number of effective trap ([1]; 5% 2-phenylethanol in grape juice, 2013, 1st experiment, 18 installed traps): 0
- Number of effective trap ([1]; 5% 2-phenylethanol in grape juice, 2013, 2nd experiment, 18 installed traps): 0
- Total number of killed worker (Average ± SD), All species [1, 8]: (0.00 ± 0.00)
- Total number of killed worker, All species [1, 8]: 0
- Total number of killed worker (Average ± SD), All species [1, 9]: (0.00 ± 0.00)
- Total number of killed worker, All species [1, 9]: 0
- time for which 2-phenylethanol contained in grape juice maintained its effect ([1]; 5% and 1% 2-phenylethanol traps): at least about one month
- Total number of killed worker (Average ± SD), Vespa ducalis (Vespa ducalis; [4]): (0.40 ± 0.70)
- Total number of killed worker, Vespa ducalis (Vespa ducalis; [4]): 4
- Total number of killed worker (Average ± SD), Vespa ducalis (Vespa ducalis; [5]): (0.00 ± 0.00)
- Total number of killed worker, Vespa ducalis (Vespa ducalis; [5]): 0
- Total number of killed worker (Average ± SD), Vespa ducalis (Vespa ducalis; [6]): (0.00 ± 0.00)
- Total number of killed worker, Vespa ducalis (Vespa ducalis; [6]): 0
- Total number of killed worker (Average ± SD), Vespa ducalis (Vespa ducalis; [7]): (0.00 ± 0.00)
- Total number of killed worker, Vespa ducalis (Vespa ducalis; [7]): 0
- Total number of killed worker (Average ± SD), Vespa ducalis (Vespa ducalis; [8]): (0.00 ± 0.00)
- Total number of killed worker, Vespa ducalis (Vespa ducalis; [8]): 0
- Total number of killed worker (Average ± SD), Vespa ducalis (Vespa ducalis; [9]): (0.00 ± 0.00)
- Total number of killed worker, Vespa ducalis (Vespa ducalis; [9]): 0
- number of worker alighted on hemispherical surface of black ball for attack ([2]; 30 s after disturbance): 0
- number of worker alighted on hemispherical surface of black ball for attack ([2]; 60 s after disturbance): 0
- number of worker alighted on hemispherical surface of black ball for attack ([2]; 90 s after disturbance): 0
- number of worker alighted on hemispherical surface of black ball for attack ([2]; 120 s after disturbance): 0

Structure (SMILES): OCc1ccccc1 [Benzyl alcohol, benzyl alcohol]
- Effective (number of worker) ([3]; 10 workers collecting sap): 10
- No response (number of worker) ([3]; 10 workers collecting sap): 0
- time of flapping behavior before the worker flew away ([3]; 10 workers, or without flapping): ≤ 1 s
